pEC50: −log10 of the molar value.
Assays:
HT-1080 cells [1] = test: Cell viability assay (Alamar Blue), cytotoxicity in HT-1080 cells; type: cell-based, human; conditions: Homo sapiens; for pEC50: HT-1080, HT-1080 cells, compound alone, read-out: EC 50
Description: (§1) Cell lines and media. In the following example, HT-1080 (Human fibrosarcoma harboring NrasQ61K) cells (obtained from ATCC) were grown in DMEM high-glucose media with 1% non-essential amino acids (Life Technologies) and 10% FBS. 143B cells were grown in DMEM high-glucose media with 1% glutamine and 10% FBS. Calu-1 cells were grown in McCoy's 5A media (Life Technologies) supplemented with 10% FBS. All the cell lines were grown at 37° C. under 5% CO2. Cell lines were not tested for mycoplasma. In addition, the panel of four lung cancer (NCI-H23; SK-Mes-1; Calu6 and A549) were purchased from ATCC. They were cultured according to the ATCC protocol of each cell line. The non-malignant breast epithelial cells (MCF10A) were maintained in DMEM/F12 medium supplemented with 5% horse serum, epidermal growth factor (20 ng/ml), insulin (10 μg/ml), hydrocortisone (0.5 mg/ml), cholera toxin (100 ng/ml), and penicillin/streptomycin.
(§2) Cell viability assay. 9,000 cells per 100 μl were seeded in each well in 96-well plates. Lethal compounds were dissolved in DMSO. In the mother plates, DMSO stock of each compound was further diluted with media to create 20 μM or 10 μm as highest concentrations, respectively and a twofold, 9-point dilution series was prepared. Cells were seeded for 24 h and media were replaced by the mother plate drug-dilution media. When ferroptosis inhibitors (for example, 500 nM Ferrostatin-1, 100 μM α-tocopherol, 152 μM deferoxamine) were used in cotreatments with lethal inducers, they were supplemented to cell culture when the lethal compounds were added, and the cells were then incubated for 48 h. When other cell-death-modulating compounds (100 nM sodium selenite) were used in cotreatments, they were supplemented to cell culture for 24 h before lethal compounds were added to cell culture, after which cells were further incubated for 48 h at 37° C. under 5% CO2. On the day of the viability measurement, we added 25 μl per well of 50% Alamar Blue diluted in media (Life Technologies) and further incubated the cells at 37° C. for 6 h. Fluorescence intensity (excitation/emission: 540/590) was measured with a Victor 3 plate reader (PerkinElmer), and the normalized viability was calculated as VL=(IL−I0)/(IV−I0), where VL is the normalized viability, I0 is the raw fluorescence intensities from the wells containing media, IV is the cells treated with a vehicle (negative control), and IL is the cells with the lethal compound (L), respectively. The viability was typically measured in at least biological duplicate. A representative dose-response curve, the mean and standard error of normalized viability from one replicate were plotted.
Statistical analysis and data visualization. Dose-response curve plotting and EC50 computation were performed with Prism 6.0c (GraphPad Software).
Various compounds were selected for analysis of their cytotoxicity in HT-1080 cells according to the procedure described above.

HT-1080 cells [2] = test: Analysis of ROS generation: lipid ROS by C11-BODIPY flow cytometry; type: cell-based, human; conditions: C11-BODIPY (2 μM), 4 hours
Description: Analysis of ROS Generation. 200,000 HT-1080 cells were seeded in six-well plates at 37° C. for 17 h. Cells were treated with TKD1079 compound, trypsinized, pelleted, and washed once with PBS. For lipophilic or aqueous ROS detection, cells were re-suspended in Hanks' Balanced Salt Solution (HBSS; Life Technologies) containing test compounds as well as C11-BODIPY(581/591) (2 μM) (Life Technologies), and incubated for 10 min at 37° C. Cells were then pelleted, re-suspended in 250 μL HBSS in a BD Falcon tube, and analyzed using a BD Accuri C6 flow cytometer (BD Biosciences). Both dyes were measured in the FL1 channel.

[3] = system: MCF10A non-malignant breast epithelial cell; test: Cell viability assay, cytotoxicity in MCF10A cells; type: cell-based; conditions: 48 hours
Description: as §1, with “The non-malignant breast epithelial cells (MCF10A) were maintained in DMEM/F12 medium supplemented with 5% horse serum, epidermal growth factor (20 ng/ml), insulin (10 μg/ml), hydrocortisone (0.5 mg/ml), cholera toxin (100 ng/ml), and penicillin/streptomycin.” left out
(§3) Cell viability assay. […] Fluorescence intensity (excitation/emission: 540/590) was measured with a Victor 3 plate reader (PerkinElmer), and the normalized viability was calculated as VL=(IL−I0)/(IV−I0), where VL is the normalized viability, I0 is the raw fluorescence intensities from the wells containing media, IV is the cells treated with a vehicle (negative control), and IL is the cells with the lethal compound (L), respectively. The viability was typically measured in at least biological duplicate. […]
(§4) In addition, the compound TKD1079 was also analyzed for cytotoxicity in four different lung cancer cell lines according to the procedure described above. […]

NCI-H23 cells = test: Cell viability assay, cytotoxicity in NCI-H23 cells; type: cell-based; conditions: 48 hours
Description: as §1
Cell viability assay. 9,000 cells per 100 μl were seeded in each well in 96-well plates. Lethal compounds were dissolved in DMSO. In the mother plates, DMSO stock of each compound was further diluted with media to create 20 μM or 10 μm as highest concentrations, respectively and a twofold, 9-point dilution series was prepared. […] Fluorescence intensity (excitation/emission: 540/590) was measured with a Victor 3 plate reader (PerkinElmer), and the normalized viability was calculated as VL=(IL−I0)/(IV−I0), where VL is the normalized viability, I0 is the raw fluorescence intensities from the wells containing media, IV is the cells treated with a vehicle (negative control), and IL is the cells with the lethal compound (L), respectively. The viability was typically measured in at least biological duplicate. […]
In addition, the compound TKD1079 was also analyzed for cytotoxicity in four different lung cancer cell lines according to the procedure described above. […] Cytotoxicity was also determined against MCF10A non-malignant breast epithelial cell, NCI-H1299 human non-small cell lung carcinoma cell line, and Beas-2B epithelial cells isolated from normal human bronchial epithelium.

HT-1080 cells [4] = test: Cell viability assay in HT-1080 cells, cotreatment with cell-death inhibitors; type: cell-based, human; conditions: HT-1080, 48 h; for EC50: Homo sapiens, read-out: EC50 (μM) of TKD1079 + inhbitor
[5] = system: four lung cancer cell lines (NCI-H23, Calu6, A549, SK-Mes-1); test: Cell viability of four lung cancer cell lines cotreated with ferrostatin-1; type: cell-based; conditions: ferrostatin-1 500 nM, 48 h
Description: as §1, with “The non-malignant breast epithelial cells (MCF10A) were maintained in DMEM/F12 medium supplemented with 5% horse serum, epidermal growth factor (20 ng/ml), insulin (10 μg/ml), hydrocortisone (0.5 mg/ml), cholera toxin (100 ng/ml), and penicillin/streptomycin.” left out
as §3

Beas-2B epithelial cells = test: Cell viability assay, cytotoxicity in Beas-2B cells; type: cell-based; conditions: 48 hours
Description: as §2, with “When other cell-death-modulating compounds (100 nM sodium selenite) were used in cotreatments, they were supplemented to cell culture for 24 h before lethal compounds were added to cell culture, after which cells were further incubated for 48 h at 37° C. under 5% CO2. On the day of the viability measurement, we added 25 μl per well of 50% Alamar Blue diluted in media (Life Technologies) and further incubated the cells at 37° C. for 6 h.” left out, “A representative dose-response curve, the mean and standard error of normalized viability from one replicate were plotted.” left out
as §4

## CCC(CC)NS(=O)(=O)c1ccc2c(c1)C(=NO)c1cc(S(=O)(=O)NC(CC)CC)ccc1-2 [TKD1034D, 9-(hydroxyimino)-N^2,N^7-di(pentan-3-yl)-9H-fluorene-2,7-disulfonamide]
HT-1080 cells [1]
  pEC50: 6.29

## CCCNS(=O)(=O)c1ccc2c(c1)C(=NO)c1cc(S(=O)(=O)NCCC)ccc1-2 [TKD1034E, 9-(hydroxyimino)-N^2,N^7-dipropyl-9H-fluorene-2,7-disulfonamide]
HT-1080 cells [1]
  pEC50: 5.25

## C#CC1(O)c2cc(S(=O)(=O)NC3CCCCC3)ccc2-c2ccc(S(=O)(=O)NC3CCCCC3)cc21 [TKD1066, N^2,N^7-dicyclohexyl-9-ethynyl-9-hydroxy-9H-fluorene-2,7-disulfonamide]
HT-1080 cells [1]
  pEC50: 5.34

## O=S(=O)(NC1CC2CCC1C2)c1ccc2c(c1)C(=NO)c1cc(S(=O)(=O)NC3CC4CCC3C4)ccc1-2 (stereo not shown) [TKD1079, N^2,N^7-di(bicyclo[2.2.1]heptan-2-yl)-9-(hydroxyimino)-9H-fluorene-2,7-disulfonamide]
HT-1080 cells [2]
  lipid ROS generation during cell death: increased
[3]
  cytotoxicity in breast MCF10A cells: without harming
NCI-H23 cells; NCI-H23, DFOM (152 μM) and Fer-1 (0.5 μM)
  ferroptosis induction in NCI-H23 using ferroptosis inhibitors: induces ferroptosis
NCI-H23 cells
  cytotoxicity (cell viability) in NCI-H23 cells: highly potent
HT-1080 cells [1]; HT-1080, 48 h, HT-1080 cells, 48 hours, no inhibitor, read-out: EC50 (μM) of TKD1079
  EC50: 0.0797 µM
HT-1080 cells [1]
  pEC50: 7.10
HT-1080 cells [4]; DFOM (152 μM)
  Slectivity in fold [EC50 (TKD1079 + inhibitor)/ EC50 inhbitor]: 34.2 fold
HT-1080 cells [4]; Ebselen (5 μM)
  Slectivity in fold [EC50 (TDK1079 + inhibitor)/ EC50 inhbitor]: 5.8 fold
HT-1080 cells [4]; Fer 1 (500 nM)
  Slectivity in fold [EC50 (TKD1079 + inhibitor)/ EC50 inhbitor]: 68.8 fold
HT-1080 cells [4]; Selenite (100 nM)
  Slectivity in fold [EC50 (TDK1079 + inhibitor)/ EC50 inhbitor]: 9.5 fold
HT-1080 cells [4]; TOFA (10 μM)
  Slectivity in fold [EC50 (TDK1079 + inhibitor)/ EC50 inhbitor]: 148.7 fold
HT-1080 cells [4]; Trolox (100 μM)
  Slectivity in fold [EC50 (TDK1079 + inhibitor)/ EC50 inhbitor]: 11.6 fold
HT-1080 cells [4]; ZVAD 45 μM
  Slectivity in fold [EC50 (TKD1079 + inhibitor)/ EC50 inhbitor]: 0.6 fold
  blocking of the compound's lethality by the apoptosis inhibitor pathway (ZVAD): did not block
HT-1080 cells [4]; aToc (100 μM)
  Slectivity in fold [EC50 (TKD1079 + inhibitor)/ EC50 inhbitor]: 13.5 fold
HT-1080 cells [4]; cotreated with DFOM (152 μM)
  EC50: 2.73 µM
HT-1080 cells [4]; cotreated with Ebselen (5 μM)
  EC50: 0.459 µM
HT-1080 cells [4]; cotreated with Fer 1 (500 nM)
  EC50: 5.48 µM
HT-1080 cells [4]; cotreated with Selenite (100 nM)
  EC50: 0.758 µM
HT-1080 cells [4]; cotreated with TOFA (10 μM)
  EC50: 11.8 µM
HT-1080 cells [4]; cotreated with Trolox (100 μM)
  EC50: 0.924 µM
HT-1080 cells [4]; cotreated with ZVAD (45 μM)
  EC50: 0.051 µM
HT-1080 cells [4]; cotreated with aToc (100 μM)
  EC50: 1.08 µM
[5]
  cytotoxicity in the presence of Fer-1: blocked
Beas-2B epithelial cells
  cytotoxicity in normal human lung Beas-2B cells: without harming

## O=S(=O)(NC1CCCCC1)c1ccc2c(c1)C(Br)c1cc(S(=O)(=O)NC3CCCCC3)ccc1-2 [TKD1100, 9-bromo-N2,N^7-dicyclohexyl-9H-fluorene-2,7-disulfonamide]
HT-1080 cells [1]
  pEC50: 5.45

## O=S(=O)(NC1C2CC3CC(C2)CC1C3)c1ccc2c(c1)C(=NO)c1cc(S(=O)(=O)NC3C4CC5CC(C4)CC3C5)ccc1-2 (stereo not shown) [TKD2043, N^2,N^7-di(adamantan-2-yl)-9-(hydroxyimino)-9H-fluorene-2,7-disulfonamide]
NCI-H23 cells
  cytotoxicity (cell viability) in NCI-H23 cells: significantly more potent than TKD1079 and FIN56

## CC(C)CNS(=O)(=O)c1ccc2c(c1)C(=NO)c1cc(S(=O)(=O)NCC(C)C)ccc1-2 [TKD10416, 9-(hydroxyimino)-N^2,N^7-diisobutyl-9H-fluorene-2,7-disulfonamide]
HT-1080 cells [1]
  pEC50: 5.36
